Biological target: Phosphodiesterase 3 (Homo sapiens, UniProt Q14432+Q13370)
Experiment: Inhibition of phosphodiesterase 3 (PDE3) isolated from the dog aorta
Assay type: protein assay, Canis lupus familiaris
Details: target entry is the homologue from another species

SMILES	IC50 [µM]
Cc1cc2nnc(C(=O)N[C@@H]3N=C(c4ccccc4)c4cc(N5CCCC5)cc5c4N(CC5)C3=O)c(C)n2n1	22.2
Cc1cc2c3c(c1)C(c1ccccc1)=N[C@@H](NC(=O)c1ccncc1)C(=O)N3CC2	35.8
Cc1cc2c3c(c1)C(c1ccccc1)=N[C@@H](NC(=O)c1cc4ccccc4cn1)C(=O)N3CC2	> 100
Nc1cnccc1C(=O)N[C@@H]1N=C(c2ccccc2)c2cccc3c2N(CC3)C1=O	90
Nc1cc2c3c(c1)C(c1ccccc1)=N[C@@H](NC(=O)c1cc4ccccc4cn1)C(=O)N3CC2	48.5
Nc1c(Cl)cc(C(=O)N[C@@H]2N=C(c3ccccc3)c3cc(N4CCCC4)cc4c3N(CC4)C2=O)cc1Cl	10.6
Nc1cc2c3c(c1)C(c1ccccc1)=N[C@@H](NC(=O)c1cnc4ccccc4c1)C(=O)N3CC2	53.9
Nc1ccc(C(=O)N[C@@H]2N=C(c3ccccc3)c3cc(N)cc4c3N(CC4)C2=O)cc1	86.8
COc1ccccc1C(=O)N[C@@H]1N=C(c2ccccc2)c2cc(C)cc3c2N(CC3)C1=O	28.8
Nc1cc2c3c(c1)C(c1ccccc1)=N[C@@H](NC(=O)c1c(Cl)cncc1Cl)C(=O)N3CC2	80
COc1ccccc1C(=O)N[C@@H]1N=C(c2ccccc2)c2cc(N)cc3c2N(CC3)C1=O	> 100
CC(=O)Nc1cc2c3c(c1)C(c1ccccc1)=N[C@@H](NC(=O)c1cc(Cl)c(N)c(Cl)c1)C(=O)N3CC2	4.5
CC(C)(C)OC(=O)Nc1cnccc1C(=O)N[C@@H]1N=C(c2ccccc2)c2cc(N)cc3c2N(CC3)C1=O	58.2
CC(=O)Nc1cc2c3c(c1)C(c1ccccc1)=N[C@@H](NC(=O)c1ccncc1)C(=O)N3CC2	70
O=C(N[C@@H]1N=C(c2ccccc2)c2cccc3c2N(CC3)C1=O)c1c(Cl)cncc1Cl	> 100

Tested on: not listed separately
Experiment: In vitro inhibition of TNF-alpha release from human peripheral blood monocytes
Assay type: functional
Details: not given

SMILES	IC50 [µM]
Cc1cc2c3c(c1)C(c1ccccc1)=N[C@@H](NC(=O)c1ccncc1)C(=O)N3CC2	0.99
Nc1cc2c3c(c1)C(c1ccccc1)=N[C@@H](NC(=O)c1cc4ccccc4cn1)C(=O)N3CC2	0.048
Nc1ccc(C(=O)N[C@@H]2N=C(c3ccccc3)c3cc(N)cc4c3N(CC4)C2=O)cc1	0.443
Nc1cc2c3c(c1)C(c1ccccc1)=N[C@@H](NC(=O)c1c(Cl)cncc1Cl)C(=O)N3CC2	0.038
COc1ccccc1C(=O)N[C@@H]1N=C(c2ccccc2)c2cc(N)cc3c2N(CC3)C1=O	0.123

Tested on: not listed separately
Experiment: In vitro inhibition of TNF-alpha-release from human whole blood
Assay type: functional
Details: not given

SMILES	IC50 [µM]
COc1ccc([C@]2(C#N)CC[C@@H](C(=O)O)CC2)cc1OC1CCCC1 [CILOMILAST]	7.3
Cc1cc2c3c(c1)C(c1ccccc1)=N[C@@H](NC(=O)c1ccncc1)C(=O)N3CC2	61
Nc1cc2c3c(c1)C(c1ccccc1)=N[C@@H](NC(=O)c1cc4ccccc4cn1)C(=O)N3CC2	3.37
Nc1ccc(C(=O)N[C@@H]2N=C(c3ccccc3)c3cc(N)cc4c3N(CC4)C2=O)cc1	1.52
Nc1cc2c3c(c1)C(c1ccccc1)=N[C@@H](NC(=O)c1c(Cl)cncc1Cl)C(=O)N3CC2	0.213
COc1ccccc1C(=O)N[C@@H]1N=C(c2ccccc2)c2cc(N)cc3c2N(CC3)C1=O	1.06

Biological target: Phosphodiesterase, PDE1/PDE5 (Homo sapiens, UniProt O76074+P54750+Q01064+Q14123)
Experiment: Inhibition of phosphodiesterase 1/5 isozyme (PDE1/5) mixture isolated from the guinea pig trachea.
Design: species or system Cavia porcellus
Details: target entry is the homologue from another species

SMILES	IC50 [µM]
Cc1cc2nnc(C(=O)N[C@@H]3N=C(c4ccccc4)c4cc(N5CCCC5)cc5c4N(CC5)C3=O)c(C)n2n1	> 100
Cc1cc2c3c(c1)C(c1ccccc1)=N[C@@H](NC(=O)c1ccncc1)C(=O)N3CC2	73.4
Cc1cc2c3c(c1)C(c1ccccc1)=N[C@@H](NC(=O)c1cc4ccccc4cn1)C(=O)N3CC2	> 100
Nc1cnccc1C(=O)N[C@@H]1N=C(c2ccccc2)c2cccc3c2N(CC3)C1=O	> 100
Nc1cc2c3c(c1)C(c1ccccc1)=N[C@@H](NC(=O)c1cc4ccccc4cn1)C(=O)N3CC2	> 100
Nc1c(Cl)cc(C(=O)N[C@@H]2N=C(c3ccccc3)c3cc(N4CCCC4)cc4c3N(CC4)C2=O)cc1Cl	39.2
Nc1cc2c3c(c1)C(c1ccccc1)=N[C@@H](NC(=O)c1cnc4ccccc4c1)C(=O)N3CC2	90.7
Nc1ccc(C(=O)N[C@@H]2N=C(c3ccccc3)c3cc(N)cc4c3N(CC4)C2=O)cc1	93.2
COc1ccccc1C(=O)N[C@@H]1N=C(c2ccccc2)c2cc(C)cc3c2N(CC3)C1=O	50.6
Nc1cc2c3c(c1)C(c1ccccc1)=N[C@@H](NC(=O)c1c(Cl)cncc1Cl)C(=O)N3CC2	> 100
COc1ccccc1C(=O)N[C@@H]1N=C(c2ccccc2)c2cc(N)cc3c2N(CC3)C1=O	93.2
CC(=O)Nc1cc2c3c(c1)C(c1ccccc1)=N[C@@H](NC(=O)c1cc(Cl)c(N)c(Cl)c1)C(=O)N3CC2	3.5
CC(C)(C)OC(=O)Nc1cnccc1C(=O)N[C@@H]1N=C(c2ccccc2)c2cc(N)cc3c2N(CC3)C1=O	67.7
CC(=O)Nc1cc2c3c(c1)C(c1ccccc1)=N[C@@H](NC(=O)c1ccncc1)C(=O)N3CC2	30.1
O=C(N[C@@H]1N=C(c2ccccc2)c2cccc3c2N(CC3)C1=O)c1c(Cl)cncc1Cl	> 100

Tested on: Rattus norvegicus
Experiment: In vivo inhibition of antigen induced eosinophil recruitment in Brown-Norvway Rats at 10 mg/kg peroral dose
Assay type: functional
Details: dose 10 mg/kg, route oral

SMILES	inhibition in vivo at 10 mg/kg [%]
Nc1cc2c3c(c1)C(c1ccccc1)=N[C@@H](NC(=O)c1cc4ccccc4cn1)C(=O)N3CC2	-62.9

Same assay, conditions: route oral

SMILES	ED50 [mg/kg]
Cc1cc2c3c(c1)C(c1ccccc1)=N[C@@H](NC(=O)c1ccncc1)C(=O)N3CC2	5.06
Nc1ccc(C(=O)N[C@@H]2N=C(c3ccccc3)c3cc(N)cc4c3N(CC4)C2=O)cc1	10.8
CC(C)(C)OC(=O)Nc1cnccc1C(=O)N[C@@H]1N=C(c2ccccc2)c2cc(N)cc3c2N(CC3)C1=O	5.03

Biological target: T1, Phosphodiesterase 4 (Homo sapiens, UniProt P27815+Q08499+Q07343+Q08493)
Experiment: PDE4-related emetic activity in ferrets after intravenous administration at 10 mg/kg
Assay type: functional, organism-based
Design: dose 10 mg/kg
Details: Mustela putorius furo, target entry is the homologue from another species

SMILES	R+V
COc1ccc([C@]2(C#N)CC[C@@H](C(=O)O)CC2)cc1OC1CCCC1 [CILOMILAST]	59.5 90 min
Cc1cc2c3c(c1)C(c1ccccc1)=N[C@@H](NC(=O)c1ccncc1)C(=O)N3CC2	0 90 min
Nc1ccc(C(=O)N[C@@H]2N=C(c3ccccc3)c3cc(N)cc4c3N(CC4)C2=O)cc1	0 90 min
CC(C)(C)OC(=O)Nc1cnccc1C(=O)N[C@@H]1N=C(c2ccccc2)c2cc(N)cc3c2N(CC3)C1=O	0 90 min

Biological target: T1, Phosphodiesterase 4
Experiment: Inhibition of phosphodiesterase type 4 isozyme (PDE4) from the U937 human cell line.
Assay type: cell-based
Details: u-937

SMILES	IC50 [µM]
O=C(N[C@@H]1N=C(c2ccccc2)c2cc([N+](=O)[O-])cc3c2N(CC3)C1=O)c1cccnc1	10.8
O=C(N[C@@H]1N=C(c2ccccc2)c2cc([N+](=O)[O-])cc3c2N(CC3)C1=O)c1cc2ccccc2cn1	> 100
Cc1cc2nnc(C(=O)N[C@@H]3N=C(c4ccccc4)c4cc(N5CCCC5)cc5c4N(CC5)C3=O)c(C)n2n1	0.2
Nc1cnccc1C(=O)N[C@@H]1N=C(c2ccccc2)c2cccc3c2N(CC3)C1=O	16.2
Nc1cc2c3c(c1)C(c1ccccc1)=N[C@@H](NC(=O)c1cc4ccccc4cn1)C(=O)N3CC2	0.1
Nc1c(Cl)cc(C(=O)N[C@@H]2N=C(c3ccccc3)c3cc(N4CCCC4)cc4c3N(CC4)C2=O)cc1Cl	0.08
Nc1cc2c3c(c1)C(c1ccccc1)=N[C@@H](NC(=O)c1cnc4ccccc4c1)C(=O)N3CC2	0.2
Nc1ccc(C(=O)N[C@@H]2N=C(c3ccccc3)c3cc(N)cc4c3N(CC4)C2=O)cc1	0.69
COc1ccccc1C(=O)N[C@@H]1N=C(c2ccccc2)c2cc(C)cc3c2N(CC3)C1=O	1.3
Nc1cc2c3c(c1)C(c1ccccc1)=N[C@@H](NC(=O)c1c(Cl)cncc1Cl)C(=O)N3CC2	0.2
COc1ccccc1C(=O)N[C@@H]1N=C(c2ccccc2)c2cc(N)cc3c2N(CC3)C1=O	0.5
CC(=O)Nc1cc2c3c(c1)C(c1ccccc1)=N[C@@H](NC(=O)c1cc(Cl)c(N)c(Cl)c1)C(=O)N3CC2	0.09
CC(=O)Nc1cc2c3c(c1)C(c1ccccc1)=N[C@@H](NC(=O)c1ccncc1)C(=O)N3CC2	0.7
O=C(N[C@@H]1N=C(c2ccccc2)c2cccc3c2N(CC3)C1=O)c1c(Cl)cncc1Cl	4.7

Tested on: not listed separately
Experiment: In vivo inhibition of LPS-stimulated TNF-alpha release in Wistar rats at 10 mg/kg oral dose
Assay type: functional
Details: Rattus norvegicus

SMILES	ED50 [mg/kg]
COc1ccc([C@]2(C#N)CC[C@@H](C(=O)O)CC2)cc1OC1CCCC1 [CILOMILAST]	3

Same assay, conditions: Rattus norvegicus, dose 10 mg/kg

SMILES	inhibition in vivo at 10 mg/kg [%]
Cc1cc2c3c(c1)C(c1ccccc1)=N[C@@H](NC(=O)c1ccncc1)C(=O)N3CC2	-25
Nc1cc2c3c(c1)C(c1ccccc1)=N[C@@H](NC(=O)c1cc4ccccc4cn1)C(=O)N3CC2	-16
Nc1ccc(C(=O)N[C@@H]2N=C(c3ccccc3)c3cc(N)cc4c3N(CC4)C2=O)cc1	-71
CC(C)(C)OC(=O)Nc1cnccc1C(=O)N[C@@H]1N=C(c2ccccc2)c2cc(N)cc3c2N(CC3)C1=O	-87
